# Reference: patent publication US6506417B1, “Composition and process for reducing bacterial citrus canker organisms” (FMC Technologies, Inc., priority 2001, dated 2003)
# Assays:
# [1] = tested on: X. axonopodis pv. citrumelo; experiment: Dose-response study, 1 minute exposure to peracetic acid dilutions; type: cell-based
# Method: Four strains of X. axonopodis pv. citrumelo were obtained from the Florida Department of Citrus and propagated in Nutrient Broth (Difco) at 22° C. with agitation for 48 to 72 hours. Cells were pelleted at 5,000 rpm/16 minutes, washed with Butterfield's Phosphate (pH 7.2) and resuspended in approximately 10% of the initial culture volume with Butterfield's Phosphate in order to concentrate the cells 10×. This final concentrate was used as the inoculum for the dose-response study. FMC VigorOx Liquid Sanitizer and Disinfectant (5% peracetic acid) and VigorOx SP-15 Antimicrobial Agent (15% peracetic acid) were diluted to final peracetic acid concentrations of 0 ppm (control), 5 ppm, 10 ppm, 20 ppm, 30 ppm, 40 ppm, 50 ppm, 60 ppm, 70 ppm, and 80 ppm with distilled water. Each variable was dispensed in 9.9 ml aliquots in sterile test tubes.
# A 0.1 ml aliquot of the inoculum was added to each peracetic acid variable, shaken, and allowed to remain exposed to the solution for 1 minute. […]
# Data summaries of trials performed on each product are expressed in the following tables. […] The initial inoculum was determined to contain 2.9×10^11 cfu/ml X. axonopodis, and the initial level of X. axonopodis exposed to each concentration of peracetic acid was determined to be 2.9×10^9 cfu/ml.
# [2] = tested on: Xanthomonas campestris pv. vesicatoria; conditions: 200 μg/ml; cited from earlier work
smiles,measurement,setting,value
CC(=O)OO [peroxyacetic acid],reduction of X. axonopodis,"[1]; 30 parts per million peroxyacetic acid, and above",> 99.9%
same,significant reduction of X. axonopodis,[1]; greater than 10 but less than 20 parts per million peroxyacetic acid,> 1 log10 cfu/ml
same,level of eradication,[2],acceptable level of eradication comparable to approved chlorine treatments
